Measured values taken from patent US8586550B2, “Thiazole derivatives as SGLT2 inhibitors and pharmaceutical composition comprising same” (Green Cross Corporation, priority 2010, dated 2013).

biological target: T1, Human SGLT2 (hSGLT2) (Homo sapiens, UniProt P31639); assay: Sodium-dependent glucose transport (14C-AMG uptake) assay in CHO cells stably expressing hSGLT2; assay type: cell-based; settings: CHO cells expressing hSGLT2, 14C-AMG uptake, 37° C. for 2 h; single determinations; read-out: hSGLT2 Inhibitory Activity IC50
T1 construct: expressed in transfected cells
T1 sequence (P31639 1-672): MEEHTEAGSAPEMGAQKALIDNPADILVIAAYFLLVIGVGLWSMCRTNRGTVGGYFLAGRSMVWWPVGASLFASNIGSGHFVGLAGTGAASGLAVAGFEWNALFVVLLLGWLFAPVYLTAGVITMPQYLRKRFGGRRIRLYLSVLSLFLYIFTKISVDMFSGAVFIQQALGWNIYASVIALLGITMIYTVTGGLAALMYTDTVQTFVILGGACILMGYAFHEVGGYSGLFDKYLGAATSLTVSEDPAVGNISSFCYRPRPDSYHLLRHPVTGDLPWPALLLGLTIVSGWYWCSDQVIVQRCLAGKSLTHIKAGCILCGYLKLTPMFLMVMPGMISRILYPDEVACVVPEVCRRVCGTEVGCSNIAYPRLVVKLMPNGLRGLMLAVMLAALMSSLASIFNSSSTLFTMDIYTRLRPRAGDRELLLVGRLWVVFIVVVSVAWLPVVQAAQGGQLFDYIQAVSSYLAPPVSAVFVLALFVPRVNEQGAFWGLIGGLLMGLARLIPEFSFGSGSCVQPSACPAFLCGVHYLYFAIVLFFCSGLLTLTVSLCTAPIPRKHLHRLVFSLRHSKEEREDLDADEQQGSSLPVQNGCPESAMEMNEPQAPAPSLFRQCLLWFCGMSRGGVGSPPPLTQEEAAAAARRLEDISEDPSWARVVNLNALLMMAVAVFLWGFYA
Outline: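 Uptake of 14C-α-methyl-D-glucopyranoside (8 μM labeled, 1 mM unlabeled, NaCl buffer pH 7.4) measured over 2 h at 37 °C with inhibitor in hSGLT2-transfected CHO cells after 10 min choline-buffer pretreatment. Radioactivity by liquid scintillation; IC50 from nonlinear regression.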

| IC50 | Compound |
| --- | --- |
| 14.3 nM | OC[C@H]1O[C@@H](c2cc(Cc3ncc(-c4ccco4)s3)cc3ccccc23)[C@H](O)[C@@H](O)[C@@H]1O [Example 93, (2S,3R,4R,5S,6R)-2-(3-((5-(Furan-2-yl)thiazol-2-yl)methyl)naphthalen-1-yl)-6-(hydroxymethyl)tetrahydro-2H-pyran-3,4,5-triol] |
| 5.98 nM | OC[C@H]1O[C@@H](c2cc(Cc3ncc(-c4cccs4)s3)cc3ccccc23)[C@H](O)[C@@H](O)[C@@H]1O [Example 94, (2R,3S,4R,5R,6S)-2-(Hydroxymethyl)-6-(3-((5-(thiophen-2-yl)thiazol-2-yl)methyl)naphthalen-1-yl)tetrahydro-2H-pyran-3,4,5-triol] |
| 2.94 nM | COc1c(Cc2ncc(-c3ccco3)s2)cc([C@@H]2O[C@H](CO)[C@@H](O)[C@H](O)[C@H]2O)c2ccccc12 [Example 95, (2S,3R,4R,5S,6R)-2-(3-((5-(Furan-2-yl)thiazol-2-yl)methyl)-4-methoxynaphthalen-1-yl)-6-(hydroxymethyl)-tetrahydro-2H-pyran-3,4,5-triol] |
| 4.94 nM | COc1c(Cc2ncc(-c3cccs3)s2)cc([C@@H]2O[C@H](CO)[C@@H](O)[C@H](O)[C@H]2O)c2ccccc12 [Example 96, (2R,3S,4R,5R,6S)-2-(Hydroxymethyl)-6-(4-methoxy-3-((5-(thiophen-2-yl)thiazol-2-yl)methyl)naphthalen-1-yl)-tetrahydro-2H-pyran-3,4,5-triol] |
| 6.77 nM | COc1c(Cc2ncc(-c3ccccc3)s2)cc([C@@H]2O[C@H](CO)[C@@H](O)[C@H](O)[C@H]2O)c2ccccc12 [Example 97, (2R,3S,4R,5R,6S)-2-(Hydroxymethyl)-6-(4-methoxy-3-((5-phenylthiazol-2-yl)methyl)naphthalen-1-yl)-tetrahydro-2H-pyran-3,4,5-triol] |
| 29.9 nM | COc1c(Cc2ncc(C)s2)cc([C@@H]2O[C@H](CO)[C@@H](O)[C@H](O)[C@H]2O)c2ccccc12 [Example 98, (2R,3S,4R,5R,6S)-2-(Hydroxymethyl)-6-(4-methoxy-3-((5-methylthiazol-2-yl)methyl)naphthalen-1-yl)-tetrahydro-2H-pyran-3,4,5-triol] |
| 7.3 nM | CCCCCCCc1cnc(Cc2cc([C@@H]3O[C@H](CO)[C@@H](O)[C@H](O)[C@H]3O)c3ccccc3c2OC)s1 [Example 100, (2S,3R,4R,5S,6R)-2-(3-((5-Heptylthiazol-2-yl)methyl)-4-methoxynaphthalen-1-yl)-6-(hydroxymethyl)-tetrahydro-2H-pyran-3,4,5-triol] |
| 26.8 nM | COc1c(Cc2ncc(C3CCCC3)s2)cc([C@@H]2O[C@H](CO)[C@@H](O)[C@H](O)[C@H]2O)c2ccccc12 [Example 101, (2S,3R,4R,5S,6R)-2-(3-((5-Cyclopentylthiazol-2-yl)methyl)-4-methoxynaphthalen-1-yl)-6-(hydroxymethyl)-tetrahydro-2H-pyran-3,4,5-triol] |
| 50.3 nM | COc1c(Cc2ncc(C3CCCCC3)s2)cc([C@@H]2O[C@H](CO)[C@@H](O)[C@H](O)[C@H]2O)c2ccccc12 [Example 102, (2S,3R,4R,5S,6R)-2-(3-((5-Cyclohexylthiazol-2-yl)methyl)-4-methoxynaphthalen-1-yl)-6-(hydroxymethyl)-tetrahydro-2H-pyran-3,4,5-triol] |
| 51.8 nM | CCOc1cnc(Cc2cc([C@@H]3O[C@H](CO)[C@@H](O)[C@H](O)[C@H]3O)c3ccccc3c2OC)s1 [Example 103, (2S,3R,4R,5S,6R)-2-(3-((5-Ethoxythiazol-2-yl)methyl)-4-methoxynaphthalen-1-yl)-6-(hydroxymethyl)-tetrahydro-2H-pyran-3,4,5-triol] |
| 100 nM | OC[C@H]1O[C@@H](c2cc(Cc3ncc(-c4ccco4)s3)c3ccccc3c2)[C@H](O)[C@@H](O)[C@@H]1O [Example 104, (2S,3R,4R,5S,6R)-2-(4-((5-(Furan-2-yl)thiazol-2-yl)methyl)naphthalen-2-yl)-6-(hydroxymethyl)-tetrahydro-2H-pyran-3,4,5-triol] |
